Experimental data from PubChem BioAssay (NCI).
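Tested at 5 concentrations; 48 h exposure; 96-well plates; endpoints linearly interpolated, else capped at highest concentration. GI50 is the concentration that inhibits growth by half. TGI marks complete inhibition of growth.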

What was measured:
Experiment in all cases: growth of human tumour cells (NCI), 48 h
OVCAR-3 ovarian = tested on: OVCAR-3 ovarian
SF-539 CNS = tested on: SF-539 CNS
UACC-257 melanoma = tested on: UACC-257 melanoma
TK-10 renal = tested on: TK-10 renal
HOP-92 NSCLC = tested on: HOP-92 NSCLC
786-0 renal = tested on: 786-0 renal
HOP-62 NSCLC = tested on: HOP-62 NSCLC
UACC-62 melanoma = tested on: UACC-62 melanoma
SK-MEL-28 melanoma = tested on: SK-MEL-28 melanoma
BT-549 breast = tested on: BT-549 breast

SMILES	GI50 (OVCAR-3 ovarian) [µM]	TGI (OVCAR-3 ovarian) [µM]	GI50 (SF-539 CNS) [µM]	TGI (SF-539 CNS) [µM]	GI50 (UACC-257 melanoma) [µM]	TGI (UACC-257 melanoma) [µM]	GI50 (TK-10 renal) [µM]	TGI (TK-10 renal) [µM]	GI50 (HOP-92 NSCLC) [µM]	TGI (HOP-92 NSCLC) [µM]	GI50 (786-0 renal) [µM]	TGI (786-0 renal) [µM]	GI50 (HOP-62 NSCLC) [µM]	TGI (HOP-62 NSCLC) [µM]	GI50 (UACC-62 melanoma) [µM]	TGI (UACC-62 melanoma) [µM]	GI50 (SK-MEL-28 melanoma) [µM]	TGI (SK-MEL-28 melanoma) [µM]	GI50 (BT-549 breast) [µM]	TGI (BT-549 breast) [µM]
O=S(=O)(NC1=NCCN1C(=S)SN1CCn2c1nsc2=S)c1ccc(Oc2ccccc2)cc1	> 100	> 100	49.5	> 100	> 100	> 100	64.4	> 100	74.2	> 100	63.8	> 100	> 100	> 100	39.3	> 100	> 100	> 100		
C=C1C(=O)O[C@H](c2ccoc2)C[C@@H]1[C@@]1(C)CCCC2(C)C(=O)OCC21 (stereo not given in full)		> 100		> 100		> 100		> 100				> 100		> 100		> 100		> 100		
CC(=O)OCC1OC(n2cccnc2=O)C(OC(C)=O)C1OC(C)=O (stereo not given)		> 100				> 100		> 100		> 100		> 100		> 100		> 100		> 100		
CCOC(=O)C1=C(C)NC(=O)NC1c1ccc(OC)cc1OC (stereo not given)		> 100				> 100		> 100		> 100		> 100		> 100		> 100				
CC1OC(n2cc(C(F)(F)F)c(=O)[nH]c2=O)C=CC1=O (stereo not given)		31.9		35.2		38.8		35.3		41		33.1		52.3		47.5		38.2		
COC(=O)C1=CC2C(=O)OC1C1C(=O)NC(=O)C21 (stereo not given)		> 100		> 100		> 100		> 100		> 100		> 100		> 100		> 100		> 100		
CC12OC(CC(O)C1O)n1c3ccccc3c3c4c(c5c6ccccc6n2c5c31)C(=O)N(CCN1CCOCC1)C4=O (stereo not given)	1.55	7.33			1.97	7.64	0.953	5.48	2.03	9.4	1.29	5.68	1.27	4.22	0.568	1.47	2.16	8.57	1.61	8.21
CC(=O)[CH-]C(=O)c1ccccc1.CC(=O)[CH-]C(=O)c1ccccc1.Cl.[O-]c1ccnc2ccccc12.[O-]c1ccnc2ccccc12.[Ti+4]	> 100	> 100	> 100	> 100	> 100	> 100			> 100	> 100	> 100	> 100	> 100	> 100	> 100	> 100	> 100	> 100		
CC1(C)C(=O)OC(n2cc(F)c(=O)[nH]c2=O)C1=O (stereo not given)		> 100		> 100		> 100		> 100		98.6		> 100		> 100		> 100		> 100		
Cc1cccc(NC(=O)C(=O)C(C2OC(=O)c3ccccc32)[N+](=O)[O-])c1C (stereo not given)		5.11		34.9		17.6		32				21.8		31.1		23.1		25.1		
COc1cc(OCc2ccccc2)c2c(CCC(=O)O)cc(=O)oc2c1 (tested in a mixture with another compound)		> 100		> 100		> 100		96.6		> 100		> 100				> 100		99.9		> 100
O=C(/C=C/c1ccc(Cl)c(Cl)c1)c1ccccc1Cl		23		12.2		27.7		47.9		31.7		10.8		34.2		25.5		22.5		
NCCCNc1nc2ccccc2c2c(=O)c3cc(F)ccc3sc12	1.7	3.25	1.71	3.1	1.79	3.81			1.31	3.33	1.54	3.01	1.43	3.15	1.62	3.01	1.79	3.24	1.51	2.96
c1ccc(C2=NOC3C4CCC(C4)C23)cc1 (stereo not given)		> 100		> 100		> 100		> 100		> 100		> 100		> 100		> 100		> 100		
COc1ccc(Cn2cc(COc3cc(/C=C/C(=O)c4cc(OC)c(OC)c(OC)c4)ccc3OC)nn2)cc1	2.62	6.71	3.02	12.9	10.3	> 100	3.7	26.3			5.01	> 100	2.72	7.97	4.19	> 100	7.45	> 100	3.33	> 100
CC(=O)OC1CCC2OOC1O2 (stereo not given)		> 100		> 100		> 100		> 100				> 100		> 100		> 100		> 100		
Cc1ccc(S(=O)(=O)OCOS(=O)(=O)c2ccc(C)cc2)cc1		> 100		> 100		> 100		> 100				> 100		> 100				> 100		
COc1ccc(Oc2nc3cc(N)cc(N)c3nc2-c2ccccc2)cc1	14.9	72.7	23.3	61.1	> 100	> 100	53.5	> 100			24.4	> 100		40.8	63.5	> 100	19.6	49	32.1	> 100
